Test results published in PubChem BioAssay AID278 (DTP/NCI, 2004).
Inconclusive results are not listed.

Tested on: nude mice, A549 intrarenal xenograft, tumor weight change
Assay: NCI In Vivo Anticancer Drug Screen. Data for tumor model A549 Human Adenocarcinoma of Lung with characteristics of Type II Alveolar Epithelial cells (intrarenal inoculation) in NU/NU BALB/C (nude) mice
Conditions: endpoint: mean tumor weight change, schedule: Q04DX003 (ip), vehicle: saline with Tween-80, higher = larger tumour
Summary of the method: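 Mice bearing transplantable tumors were treated and survival or tumor size recorded. Values are given as treated-group measurement divided by vehicle-control measurement (T/C).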

SMILES: CC[C@@]1(O)C(=O)OCc2c1cc1n(c2=O)Cc2cc3ccccc3nc2-1
- T/C (dose: 2.0 mg/kg/injection): 31 % of control
- T/C (dose: 4.0 mg/kg/injection): 29 % of control
- T/C (dose: 6.0 mg/kg/injection): -21 % of control
- T/C (dose: 8.0 mg/kg/injection): 17 % of control
- T/C (dose: 10.0 mg/kg/injection): -80 % of control
- T/C (dose: 16.0 mg/kg/injection): 12 % of control

SMILES: CCC(NC(N)=O)C(CC)NC(N)=O (centres undefined)
- T/C (dose: 6.25 mg/kg/injection): 68 % of control
- T/C (dose: 12.5 mg/kg/injection): 120 % of control
- T/C (dose: 25.0 mg/kg/injection): 102 % of control
